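Tested at 5 concentrations; 48 h exposure; 96-well plates; endpoints linearly interpolated, else capped at highest concentration. TGI: concentration producing complete growth inhibition.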
Experiments:
Assay in all cases: NCI tumour cell line growth inhibition, 48 h
M14 melanoma = tested on: M14 melanoma
M19-MEL melanoma = tested on: M19-MEL melanoma
CCRF-CEM leukemia = tested on: CCRF-CEM leukemia
SR leukemia = tested on: SR leukemia
HOP-18 NSCLC = tested on: HOP-18 NSCLC
SNB-19 CNS = tested on: SNB-19 CNS
HCT-15 colon = tested on: HCT-15 colon
MALME-3M melanoma = tested on: MALME-3M melanoma
K-562 leukemia = tested on: K-562 leukemia
A549 NSCLC = tested on: A549 NSCLC
SF-268 CNS = tested on: SF-268 CNS
COLO 205 colon = tested on: COLO 205 colon
HOP-62 NSCLC = tested on: HOP-62 NSCLC
MOLT-4 leukemia = tested on: MOLT-4 leukemia
HCC-2998 colon = tested on: HCC-2998 colon
TK-10 renal = tested on: TK-10 renal
DLD-1 colon = tested on: DLD-1 colon
SK-MEL-28 melanoma = tested on: SK-MEL-28 melanoma
RXF-631 renal = tested on: RXF-631 renal
SNB-78 CNS = tested on: SNB-78 CNS
NCI-H522 lung = tested on: NCI-H522 lung
LXFL 529 NSCLC = tested on: LXFL 529 NSCLC
RPMI-8226 leukemia = tested on: RPMI-8226 leukemia
OVCAR-4 ovarian = tested on: OVCAR-4 ovarian
HCT-116 colon = tested on: HCT-116 colon
NCI-H226 lung = tested on: NCI-H226 lung
786-0 renal = tested on: 786-0 renal
SK-MEL-2 melanoma = tested on: SK-MEL-2 melanoma
SNB-75 CNS = tested on: SNB-75 CNS
KM12 colon = tested on: KM12 colon
UO-31 renal = tested on: UO-31 renal
UACC-62 melanoma = tested on: UACC-62 melanoma
SN12C renal = tested on: SN12C renal
DMS 273 small cell lung = tested on: DMS 273 small cell lung
SW-620 colon = tested on: SW-620 colon
ACHN renal = tested on: ACHN renal
SF-539 CNS = tested on: SF-539 CNS
DMS 114 small cell lung = tested on: DMS 114 small cell lung
RXF 393 renal = tested on: RXF 393 renal
U251 CNS = tested on: U251 CNS
SK-OV-3 ovarian = tested on: SK-OV-3 ovarian
OVCAR-8 ovarian = tested on: OVCAR-8 ovarian
HL-60(TB) leukemia = tested on: HL-60(TB) leukemia
CAKI-1 renal = tested on: CAKI-1 renal
UACC-257 melanoma = tested on: UACC-257 melanoma
KM20L2 colon = tested on: KM20L2 colon
HT29 colon = tested on: HT29 colon
HOP-92 NSCLC = tested on: HOP-92 NSCLC
EKVX NSCLC = tested on: EKVX NSCLC
OVCAR-5 ovarian = tested on: OVCAR-5 ovarian
OVCAR-3 ovarian = tested on: OVCAR-3 ovarian
NCI-H23 lung = tested on: NCI-H23 lung
IGROV1 ovarian = tested on: IGROV1 ovarian
NCI-H460 lung = tested on: NCI-H460 lung
SF-295 CNS = tested on: SF-295 CNS
SK-MEL-5 melanoma = tested on: SK-MEL-5 melanoma

`CC12OC3(O)C4C5CC(C6C5C3C61)C42` (stereo not drawn) was tested, and the TGI (M14 melanoma) was over 100 µM, the TGI (M19-MEL melanoma) was over 100 µM and the TGI (CCRF-CEM leukemia) was over 100 µM. It also gave a TGI (SR leukemia) of over 100 µM, a TGI (HOP-18 NSCLC) of over 100 µM and a TGI (SNB-19 CNS) of over 100 µM. It also gave a TGI (HCT-15 colon) of over 100 µM, a TGI (MALME-3M melanoma) of over 100 µM and a TGI (K-562 leukemia) of over 100 µM. The TGI (A549 NSCLC) was over 100 µM, the TGI (SF-268 CNS) was over 100 µM and the TGI (COLO 205 colon) was over 100 µM. The TGI (HOP-62 NSCLC) was over 100 µM, the TGI (MOLT-4 leukemia) was over 100 µM and the TGI (HCC-2998 colon) was over 100 µM. It also gave a TGI (TK-10 renal) of over 100 µM, a TGI (DLD-1 colon) of over 100 µM and a TGI (SK-MEL-28 melanoma) of over 100 µM. The TGI (RXF-631 renal) was over 100 µM, the TGI (SNB-78 CNS) was over 100 µM and the TGI (NCI-H522 lung) was over 100 µM. For the same compound, the TGI (LXFL 529 NSCLC) was 53.1 µM, the TGI (RPMI-8226 leukemia) was over 100 µM and the TGI (OVCAR-4 ovarian) was over 100 µM. For the same compound, the TGI (HCT-116 colon) was over 100 µM, the TGI (NCI-H226 lung) was over 100 µM and the TGI (786-0 renal) was over 100 µM. For the same compound, the TGI (SK-MEL-2 melanoma) was over 100 µM, the TGI (SNB-75 CNS) was over 100 µM and the TGI (KM12 colon) was over 100 µM. The TGI (UO-31 renal) was over 100 µM, the TGI (UACC-62 melanoma) was over 100 µM and the TGI (SN12C renal) was over 100 µM. It also gave a TGI (DMS 273 small cell lung) of over 100 µM, a TGI (SW-620 colon) of over 100 µM and a TGI (ACHN renal) of over 100 µM. It also gave a TGI (SF-539 CNS) of over 100 µM, a TGI (DMS 114 small cell lung) of over 100 µM and a TGI (RXF 393 renal) of over 100 µM. It also gave a TGI (U251 CNS) of over 100 µM, a TGI (SK-OV-3 ovarian) of over 100 µM and a TGI (OVCAR-8 ovarian) of over 100 µM. The TGI (HL-60(TB) leukemia) was over 100 µM, the TGI (CAKI-1 renal) was over 100 µM and the TGI (UACC-257 melanoma) was over 100 µM. It also gave a TGI (KM20L2 colon) of over 100 µM.
`O=C1c2ccccc2C(=O)N1CCn1nc(-c2ccccc2)cc(-c2ccccc2)c1=O` was tested, and the TGI (M14 melanoma) was over 100 µM, the TGI (M19-MEL melanoma) was over 100 µM and the TGI (CCRF-CEM leukemia) was over 100 µM. The TGI (SR leukemia) was 69.8 µM, the TGI (HOP-18 NSCLC) was over 100 µM and the TGI (HT29 colon) was over 100 µM. It also gave a TGI (SNB-19 CNS) of over 100 µM, a TGI (HCT-15 colon) of over 100 µM and a TGI (MALME-3M melanoma) of over 100 µM. For the same compound, the TGI (K-562 leukemia) was over 100 µM, the TGI (A549 NSCLC) was over 100 µM and the TGI (SF-268 CNS) was over 100 µM. For the same compound, the TGI (HOP-92 NSCLC) was 96.8 µM, the TGI (COLO 205 colon) was over 100 µM and the TGI (HOP-62 NSCLC) was over 100 µM. For the same compound, the TGI (MOLT-4 leukemia) was over 100 µM, the TGI (HCC-2998 colon) was over 100 µM and the TGI (DLD-1 colon) was over 100 µM. It also gave a TGI (SK-MEL-28 melanoma) of over 100 µM, a TGI (RXF-631 renal) of over 100 µM and a TGI (EKVX NSCLC) of over 100 µM. The TGI (SNB-78 CNS) was over 100 µM, the TGI (NCI-H522 lung) was over 100 µM and the TGI (LXFL 529 NSCLC) was over 100 µM. It also gave a TGI (RPMI-8226 leukemia) of 36.9 µM, a TGI (OVCAR-4 ovarian) of over 100 µM and a TGI (OVCAR-5 ovarian) of over 100 µM. For the same compound, the TGI (HCT-116 colon) was over 100 µM, the TGI (OVCAR-3 ovarian) was over 100 µM and the TGI (NCI-H226 lung) was over 100 µM. It also gave a TGI (786-0 renal) of over 100 µM, a TGI (SK-MEL-2 melanoma) of over 100 µM and a TGI (SNB-75 CNS) of over 100 µM. It also gave a TGI (KM12 colon) of over 100 µM, a TGI (UO-31 renal) of over 100 µM and a TGI (NCI-H23 lung) of over 100 µM. The TGI (IGROV1 ovarian) was over 100 µM, the TGI (UACC-62 melanoma) was over 100 µM and the TGI (SN12C renal) was over 100 µM. The TGI (DMS 273 small cell lung) was over 100 µM, the TGI (NCI-H460 lung) was over 100 µM and the TGI (SW-620 colon) was over 100 µM. For the same compound, the TGI (ACHN renal) was over 100 µM, the TGI (SF-539 CNS) was over 100 µM and the TGI (DMS 114 small cell lung) was over 100 µM. For the same compound, the TGI (RXF 393 renal) was over 100 µM, the TGI (U251 CNS) was over 100 µM and the TGI (SK-OV-3 ovarian) was over 100 µM. The TGI (SF-295 CNS) was over 100 µM, the TGI (SK-MEL-5 melanoma) was over 100 µM and the TGI (OVCAR-8 ovarian) was over 100 µM. For the same compound, the TGI (HL-60(TB) leukemia) was 39 µM, the TGI (UACC-257 melanoma) was over 100 µM and the TGI (KM20L2 colon) was over 100 µM.
In the case of `COc1cc(C(=O)C(CO)Oc2ccccc2OC)ccc1O` (stereo not drawn), the TGI (M14 melanoma) is reported as over 100 µM, the TGI (M19-MEL melanoma) is reported as over 100 µM and the TGI (CCRF-CEM leukemia) is reported as over 100 µM. For the same compound, the TGI (SR leukemia) was over 100 µM, the TGI (HOP-18 NSCLC) was over 100 µM and the TGI (HT29 colon) was over 100 µM. The TGI (SNB-19 CNS) was over 100 µM, the TGI (HCT-15 colon) was over 100 µM and the TGI (MALME-3M melanoma) was over 100 µM. It also gave a TGI (K-562 leukemia) of over 100 µM, a TGI (A549 NSCLC) of over 100 µM and a TGI (SF-268 CNS) of over 100 µM. For the same compound, the TGI (HOP-92 NSCLC) was over 100 µM, the TGI (COLO 205 colon) was over 100 µM and the TGI (HOP-62 NSCLC) was over 100 µM. For the same compound, the TGI (MOLT-4 leukemia) was over 100 µM, the TGI (HCC-2998 colon) was over 100 µM and the TGI (TK-10 renal) was over 100 µM. The TGI (DLD-1 colon) was over 100 µM, the TGI (SK-MEL-28 melanoma) was over 100 µM and the TGI (RXF-631 renal) was over 100 µM. The TGI (EKVX NSCLC) was over 100 µM, the TGI (SNB-78 CNS) was over 100 µM and the TGI (NCI-H522 lung) was over 100 µM. For the same compound, the TGI (LXFL 529 NSCLC) was over 100 µM, the TGI (OVCAR-4 ovarian) was over 100 µM and the TGI (OVCAR-5 ovarian) was over 100 µM. For the same compound, the TGI (HCT-116 colon) was over 100 µM, the TGI (OVCAR-3 ovarian) was over 100 µM and the TGI (NCI-H226 lung) was over 100 µM. For the same compound, the TGI (786-0 renal) was over 100 µM, the TGI (SNB-75 CNS) was over 100 µM and the TGI (KM12 colon) was over 100 µM. The TGI (UO-31 renal) was over 100 µM, the TGI (NCI-H23 lung) was over 100 µM and the TGI (IGROV1 ovarian) was over 100 µM. It also gave a TGI (UACC-62 melanoma) of over 100 µM, a TGI (SN12C renal) of over 100 µM and a TGI (DMS 273 small cell lung) of over 100 µM. The TGI (NCI-H460 lung) was over 100 µM, the TGI (SW-620 colon) was over 100 µM and the TGI (ACHN renal) was over 100 µM. The TGI (SF-539 CNS) was over 100 µM, the TGI (DMS 114 small cell lung) was over 100 µM and the TGI (U251 CNS) was over 100 µM. The TGI (SK-OV-3 ovarian) was over 100 µM, the TGI (SF-295 CNS) was over 100 µM and the TGI (SK-MEL-5 melanoma) was over 100 µM. For the same compound, the TGI (OVCAR-8 ovarian) was over 100 µM, the TGI (HL-60(TB) leukemia) was over 100 µM and the TGI (CAKI-1 renal) was over 100 µM. It also gave a TGI (UACC-257 melanoma) of over 100 µM and a TGI (KM20L2 colon) of over 100 µM.

From PubChem BioAssay (NCI)
